Measurements from publication PMC7657476, “An improved whole life cycle culture protocol for the hydrozoan genetic model Clytia hemisphaerica” (Biology Open, 2020).
Square brackets hold non-standard residues; d marks the D form. Ends that are not written are not given here. pGlu = O=C1CC[C@@H](C(=O)O)N1

Tested on: Clytia hemisphaerica planula larvae
Assay: Metamorphosis (settlement) induction of planula larvae by synthetic GLW-amide neuropeptides
Type: in vivo
Conditions: for Metamorphosis efficiency, Average: peptide concentration not given
Protocol: (1) Culture planula larvae in MFSW containing penicillin and streptomycin. (2) Wash the surface of large glass slides (75 mm×50 mm) with warm tap water (40–50°C) and dry. Place them in 100 mm diameter petri dishes. (3) Dilute GLW-amide peptide stock solution (1–5 mM in distilled water, stored at −20°C) just prior to use in MFSW (4 ml/large slide). Recommended final concentration for GLW-amide-6 is 0.5 µM. (4) Using a plastic transfer pipette, carefully pour 0.1 ml/cm^2 or more peptide-containing sea water over the glass slide (4 ml for large glass slides, Fig. S1F). (5) Transfer 2.5–3-day-old planulae using a glass pipette. Disperse them as the settlement starts quickly. (6) Cover the dish with a lid to minimize the water evaporation and keep the dish undisturbed. (7) Planula will be firmly settled in several hours after peptide treatment. Transfer slides to polyp tanks, not later than 16 h after induction. (8) Start to feed smashed Artemia once the primary polyps have extended tentacles and open mouths. (9) Once the colony contains multiple gastrozooids, it can be fed normally with live Artemia nauplii.
Metamorphosis of planula larvae was induced by transferring them onto glass slides covered with at least 0.1 ml/cm^2 of sea water containing synthetic neuropeptides (Fig. 2E). A selection of synthetic amidated peptides derived from the neuropeptide precursors Che-PP2 and Che-PP11 ([Takeda et al., 2018]) were tested as metamorphosis inducers (Table 2) on 3-day-old planula larvae obtained by crossing Z13 (male) and Z11 (female) strains. Planula attach firmly onto the slide within a few hours (Fig. 1C, left). Metamorphosis efficiency was measured by successful settlement on the slide at 12 h, as the timing of stalk extension is variable, from several hours to days.

GNPPGLW-NH2 [GLW-amide-2, synthetic GLW-amide neuropeptide from Clytia transcriptome (precursor PP11), previously used to trigger metamorphosis]
Planula settlement efficiency (previous conditions, 1 µM peptide, variable (Fig. 7)): ≥ 40%

[pGlu]QQAPKGLW-NH2 [GLW-amide-6, synthetic GLW-amide neuropeptide derived from precursor Che-PP11]
Planula settlement on the glass slide (0.3 µM peptide, settlement scored at 12 h, 5 repeats of 20 planulae (Fig. 7)): virtually all | Lowest concentration active in inducing metamorphosis (3-day-old planulae (Z13 x Z11) on glass slide in sea water containing peptide, settlement scored at 12 h, 5 repeats of 20 planulae (Fig. 7)): 0.3 µM | Planula settlement efficiency (newly designed peptide, concentration not printed at this place (Fig. 7)): ~100% | Metamorphosis efficiency, Average (substrate agarose (2%), sample size 96–98, 4 repeats): 96.5% | Metamorphosis efficiency, Average (substrate glass, sample size 90–99, 5 repeats): 98.6% | Metamorphosis efficiency, Average (substrate plastic (polypropyrene), sample size 90–100, 5 repeats): 99.9%
